According to patent US8859557B2, “Substituted oxindole derivatives and their use as vasopressin receptor ligands” (Abbott GmbH & Co. KG, priority 2006, dated 2014):

Assays:
[1] = biological target: human vasopressin V1a receptor (Homo sapiens, UniProt P37288); assay: Vasopressin V1a receptor binding assay; conditions: selectivity for V1b over V1a, quotient of Ki values
[2] = biological target: T1, recombinant human oxytocin receptors (Homo sapiens, UniProt P30559); assay: Oxytocin receptor binding assay; conditions: selectivity for V1b over oxytocin receptor, quotient of Ki values
T1 construct: expressed in transfected cells; host or cells: HEK-293, transient expression; lysed and homogenized cells
T1 sequence (P30559 1-389): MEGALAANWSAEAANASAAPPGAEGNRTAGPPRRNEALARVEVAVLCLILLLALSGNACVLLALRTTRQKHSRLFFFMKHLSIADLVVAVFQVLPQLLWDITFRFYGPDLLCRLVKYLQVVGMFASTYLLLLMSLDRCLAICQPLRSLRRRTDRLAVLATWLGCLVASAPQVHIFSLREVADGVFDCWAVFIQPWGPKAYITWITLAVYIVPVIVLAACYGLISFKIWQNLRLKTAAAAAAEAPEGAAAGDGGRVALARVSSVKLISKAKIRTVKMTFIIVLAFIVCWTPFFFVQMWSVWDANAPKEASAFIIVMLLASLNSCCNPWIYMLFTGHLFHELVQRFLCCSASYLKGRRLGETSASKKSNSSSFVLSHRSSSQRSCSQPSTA
Description: Oxytocin Receptor Binding Assay
Confluent HEK-293 cells with transiently expressing recombinant human oxytocin receptors were centrifuged at 750×g and at room temperature for 5 minutes. The residue was taken up in ice-cold lysis buffer (50 mM Tris-HCl, 10% glycerol, pH 7.4 and Roche Complete Protease Inhibitor) and subjected to an osmotic shock at 4° C. for 20 minutes. The lyzed cells were then centrifuged at 750×g and at 4° C. for 20 minutes, the residue was taken up in incubation buffer, and aliquots of 10^7 cells/ml were prepared. The aliquots were frozen at −80° C. until used.
On the day of the experiment, the cells were thawed, diluted with incubation buffer and homogenized using a Multipette Combitip (Eppendorf, Hamburg). […] The nonspecific binding was determined with 10^−6 M oxytocin (Bachem AG, H2510). Determinations in triplicate were set up. Bound and free radioligand were separated by filtration under vacuum with Whatman GF/B glass fibre filters using a Skatron cell harvester 7000. The bound radioactivity was determined by liquid scintillation measurement in a Tricarb beta counter, model 2000 or 2200CA (Packard).

[3] = biological target: T2, human vasopressin V1b receptor (Homo sapiens, UniProt P47901); assay: Vasopressin V1b receptor binding assay; conditions: displacement of 3H-AVP, membranes of CHO-K1 cells with human V1b receptor
T2 construct: expressed in transfected cells; host or cells: CHO-K1 (cell line hV1b-3H2_CHO), membrane preparation
T2 sequence (P47901 1-424): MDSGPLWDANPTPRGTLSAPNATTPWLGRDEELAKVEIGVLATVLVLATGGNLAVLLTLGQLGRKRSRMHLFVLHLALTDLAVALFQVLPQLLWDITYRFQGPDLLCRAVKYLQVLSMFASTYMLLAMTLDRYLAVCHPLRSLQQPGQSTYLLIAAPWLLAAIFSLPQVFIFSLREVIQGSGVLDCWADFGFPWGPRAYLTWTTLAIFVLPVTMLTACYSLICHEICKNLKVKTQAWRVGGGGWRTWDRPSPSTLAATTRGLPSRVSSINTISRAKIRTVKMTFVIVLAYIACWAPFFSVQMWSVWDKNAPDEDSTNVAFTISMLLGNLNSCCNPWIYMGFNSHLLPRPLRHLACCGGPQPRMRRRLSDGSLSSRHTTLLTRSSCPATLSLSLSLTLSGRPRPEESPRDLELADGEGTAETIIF
Description: Methods for Determining the Biological Activity Vasopressin V1b Receptor Binding Assay: Substances:
This series of DMSO predilutions was diluted 1:10 with assay buffer. The substance concentration was again diluted 1:5 in the assay mixture (2% DMSO in the mixture).
All determinations were carried out as triplicate determinations.

[4] = Determination of the microsomal half-life / microsomal clearance (human); assay type: in vitro ADME; conditions: pH 7.4; human liver microsomes, 0.5 μM test substance, 0.25 mg microsomal protein/ml; read-out: Human Mikrosomal Clearance
Description: The metabolic stability of a compound can be determined, for example, by incubating a solution of this compound with liver microsomes from particular species (for example rat, dog or human) and determining the half-life of the compound under these conditions (RS Obach, Curr Opin Drug Discov Devel. 2001, 4, 36-44). It is possible to conclude from an observed larger half-life that the metabolic stability of the compound is improved. The stability in the presence of human liver microsomes is of particular interest since it makes it possible to predict the metabolic degradation of the compound in the human liver. Compounds with increased metabolic stability (determined in the liver microsome test) are therefore probably also degraded more slowly in the liver. The slower metabolic degradation in the liver can lead to higher and/or longer-lasting concentrations (effective levels) of the compound in the body, so that the elimination half-life of the compounds according to the invention is increased. Increased and/or longer-lasting effective levels may lead to a better efficacy of the compound in the treatment or prophylaxis of various vasopressin-dependent diseases. An improved metabolic stability may additionally lead to an increased bioavailability after oral administration, because the compound is subjected, after being absorbed in the intestine, to less metabolic degradation in the liver (so-called first pass effect). An increased oral bioavailability may, because the concentration (effective level) of the compound is increased, lead to a better efficacy of the compound after oral administration.
Determination of the Microsomal Half-Life:
The metabolic stability of the compounds of the invention was determined in the following assay.
The test substances are incubated in a concentration of 0.5 μM as follows:
0.5 μM test substance is preincubated together with liver microsomes of various species (rat, human or other species) (0.25 mg of microsomal protein/ml) in 0.05M potassium phosphate buffer pH 7.4 in microtitre plates at 37° C. for 5 min. The reaction is started by adding NADPH (1 mg/ml). 50 μl aliquots are taken after 0, 5, 10, 15, 20 and 30 min, and the reaction is stopped immediately with the same volume of acetonitrile and cooled down. The samples are frozen until analyzed. Using MSMS, the remaining concentration of undegraded test substance is determined. From the […] of the test substance signal/time unit curve, the half-life (T½) is determined, where the half-life of the test substance can be calculated, assuming first order kinetics, from the decrease in the concentration of the compound with time. The microsomal clearance (mCl) is calculated as mCl=In2/T½/(content of microsomal protein in mg/ml)×1000 [ml/min/mg] (modified according to the literature references: Di, The Society for Biomoleculaur Screening, 2003, 453-462; Obach, DMD, 1999 vol 27. N 11, 1350-1359).

Chain of human vasopressin V1a receptor (P37288 whole entry): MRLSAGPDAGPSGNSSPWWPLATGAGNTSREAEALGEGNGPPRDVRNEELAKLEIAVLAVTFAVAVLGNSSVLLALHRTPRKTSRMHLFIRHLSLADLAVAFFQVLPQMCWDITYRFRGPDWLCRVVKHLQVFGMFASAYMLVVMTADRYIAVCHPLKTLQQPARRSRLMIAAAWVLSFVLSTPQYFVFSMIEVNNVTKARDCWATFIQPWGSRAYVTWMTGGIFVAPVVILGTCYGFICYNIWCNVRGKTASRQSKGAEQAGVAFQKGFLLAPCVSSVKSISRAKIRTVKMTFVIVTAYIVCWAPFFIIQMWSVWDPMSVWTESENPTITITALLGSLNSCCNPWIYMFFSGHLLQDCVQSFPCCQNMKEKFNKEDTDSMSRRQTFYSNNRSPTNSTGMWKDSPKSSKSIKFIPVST

Ki(h-V1a)/Ki(h-V1b) [1]	Ki(h-OT)/Ki(h-V1b) [2]	Ki [3] [nM]	microsomal CLint at 0.5 μM [4] [µL/min/mg]	SMILES
+++ (>100)	+++ (>50)	< 10	< 60	CCOc1ncccc1C1(NC(=O)N2CCN(C3CCN(C)CC3)CC2)C(=O)N(S(=O)(=O)c2ccc(OC)cc2OC)c2ccc(C#N)cc21 (racemic) [Example 1, N-[5-Cyano-1-[(2,4-dimethoxyphenyl)sulphonyl]-3-(2-ethoxypyridin-3-yl)-2-oxo-2,3-dihydro-1H-indol-3-yl]-4-(1-methylpiperidin-4-yl)piperazine-1-carboxamide]
++ (>50-100)	++ (>25-50)	10 to 50	< 60	CCOc1ncccc1C1(NC(=O)N2CCN(C3CCN(C)CC3)CC2)C(=O)N(S(=O)(=O)c2ccccc2)c2ccc(C#N)cc21 (racemic) [Example 4, N-[5-Cyano-3-(2-ethoxypyridin-3-yl)-2-oxo-1-(phenylsulphonyl)-2,3-dihydro-1H-indol-3-yl]-4-(1-methylpiperidin-4-yl)piperazine-1-carboxamide]
+++ (>100)	++ (>25-50)	< 10	< 60	CCOc1ncccc1C1(NC(=O)N2CCN(C3CCNCC3)CC2)C(=O)N(S(=O)(=O)c2ccc(OC)cc2OC)c2ccc(C#N)cc21.O=C(O)C(F)(F)F.O=C(O)C(F)(F)F (racemic) [Example 25, N-[5-Cyano-1-[(2,4-dimethoxyphenyl)sulphonyl]-3-(2-ethoxypyridin-3-yl)-2-oxo-2,3-dihydro-1H-indol-3-yl]-4-piperidin-4-ylpiperazine-1-carboxamide bis(trifluoroacetate)]
+++ (>100)	+++ (>50)	< 10	60 to 120	CCOc1ncccc1C1(NC(=O)N2CCC(N3CCN(C)CC3)CC2)C(=O)N(S(=O)(=O)c2ccc(OC)cc2OC)c2ccc(C#N)cc21 (racemic) [Example 31, N-[5-Cyano-1-[(2,4-dimethoxyphenyl)sulphonyl]-3-(2-ethoxypyridin-3-yl)-2-oxo-2,3-dihydro-1H-indol-3-yl]-4-(4-methylpiperazin-1-yl)piperidine-1-carboxamide]
+ (15-50)	++ (>25-50)	< 10	60 to 120	CCOc1ncccc1C1(NC(=O)N2CCC(N3CCN(C)CC3)CC2)C(=O)N(S(=O)(=O)c2ccc(OC)cc2)c2ccc(C#N)cc21.O=C(O)C(F)(F)F (racemic) [Example 35, N-[5-Cyano-3-(2-ethoxypyridin-3-yl)-1-[(4-methoxyphenyl)sulphonyl]-2-oxo-2,3-dihydro-1H-indol-3-yl]-4-(4-methylpiperazin-1-yl)piperidine-1-carboxamide trifluoroacetate]
+++ (>100)	+++ (>50)	< 10	60 to 120	CCOc1ncccc1C1(NC(=O)N2CCC(N3CCN(CC)CC3)CC2)C(=O)N(S(=O)(=O)c2ccc(OC)cc2OC)c2ccc(C#N)cc21 (racemic) [Example 37, N-[5-Cyano-1-[(2,4-dimethoxyphenyl)sulphonyl]-3-(2-ethoxypyridin-3-yl)-2-oxo-2,3-dihydro-1H-indol-3-yl]-4-(4-ethylpiperazin-1-yl)piperidine-1-carboxamide]
++ (>50-100)	+++ (>50)	< 10	60 to 120	CCOc1ncccc1C1(NC(=O)N2CCC(N3CCN(CC)CC3)CC2)C(=O)N(S(=O)(=O)c2ccccc2)c2ccc(C#N)cc21 (racemic) [Example 40, N-[5-Cyano-3-(2-ethoxypyridin-3-yl)-2-oxo-1-(phenylsulphonyl)-2,3-dihydro-1H-indol-3-yl]-4-(4-ethylpiperazin-1-yl)piperidine-1-carboxamide]
